Values joined by “and” are separate entries in the source; they are usually repeats but may differ in a detail not shown here. Equal entries are not always repeated. Inconclusive results are not listed.
System: MX-1 breast xenograft, nude mice, tumor weight T/C
Experiment: NCI In Vivo Anticancer Drug Screen. Data for tumor model Human Mammary Carcinoma MX-1 Xenograft (intrarenal inoculation) in NU/NU Swiss (nude) mice
Settings: endpoint: mean tumor weight change, higher = larger tumour
Procedure, shortened: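 Compound dosed to mice with transplantable tumor; vehicle group as control. Endpoint survival or tumour size, reported as T/C.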

[1] = dose: 300.0 mg/kg/injection, schedule: Q04DX003 (sc), vehicle: saline with Tween-80
[2] = dose: 600.0 mg/kg/injection, schedule: Q04DX003 (sc), vehicle: saline with Tween-80
[3] = dose: 1200.0 mg/kg/injection, schedule: Q04DX003 (sc), vehicle: saline with Tween-80
[4] = dose: 2400.0 mg/kg/injection, schedule: Q04DX003 (sc), vehicle: saline with Tween-80
[5] = dose: 300.0 mg/kg/injection, schedule: Q04DX003 (sc), vehicle: saline
[6] = dose: 600.0 mg/kg/injection, schedule: Q04DX003 (sc), vehicle: saline
[7] = dose: 1200.0 mg/kg/injection, schedule: Q04DX003 (sc), vehicle: saline
[8] = dose: 2400.0 mg/kg/injection, schedule: Q04DX003 (sc), vehicle: saline
[9] = dose: 3.0 mg/kg/injection, schedule: Q01DX010 (sc), vehicle: saline
[10] = dose: 18.75 mg/kg/injection, schedule: Q04DX003 (sc), vehicle: saline with Tween-80
[11] = dose: 37.5 mg/kg/injection, schedule: Q04DX003 (sc), vehicle: saline with Tween-80
[12] = dose: 150.0 mg/kg/injection, schedule: Q04DX003 (sc), vehicle: saline with Tween-80
[13] = dose: 25.0 mg/kg/injection, schedule: Q04DX003 (sc), vehicle: saline with Tween-80
[14] = dose: 300.0 mg/kg/injection, schedule: Q04DX003 (sc), vehicle: Klucel (hydroxypropylcellulose) (HPC)
[15] = dose: 600.0 mg/kg/injection, schedule: Q04DX003 (sc), vehicle: Klucel (hydroxypropylcellulose) (HPC)

Question: With `CCOC(=O)/N=[N+](\[O-])c1ccccc1` as the compound, how does the T/C (dose: 37.5 mg/kg/injection, schedule: Q04DX003 (ip), vehicle: saline with Tween-80) read?
Answer: 110 % of control

Question: `O=C(Nc1cccc2c(OC(=O)C(Cl)Cl)c(N=Nc3ccc(S(=O)(=O)Nc4nccs4)cc3)cc(N=Nc3ccc(S(=O)(=O)Nc4nccs4)cc3)c12)C(Cl)Cl` (tested in a mixture with another compound) was tested. Which T/C [1] did it give?
Answer: 111 % of control

Question: And the T/C [2]?
Answer: 103 % of control

Question: And the T/C [3]?
Answer: 109 % of control

Question: What about the T/C [4] of the same compound?
Answer: 109 % of control

Question: Which results are given for `CCC(CC)COC(=O)c1ccccc1C(=O)OCC(CC)CC`?
Answer: T/C [5]: 112 % of control; T/C [6]: 82 % of control; T/C [7]: 110 % of control; T/C [8]: 88 % of control

Question: With `CS(=O)(=O)OCCC(=O)N1CCN(C(=O)CCOS(C)(=O)=O)CC1` as the compound, how does the T/C (dose: 300.0 mg/kg/injection, schedule: Q04DX003 (sc), vehicle: suspension in saline) read?
Answer: 8 % of control

Question: And the T/C (dose: 600.0 mg/kg/injection, schedule: Q04DX003 (sc), vehicle: suspension in saline)?
Answer: -100 % of control

Question: What about the T/C (dose: 1200.0 mg/kg/injection, schedule: Q04DX003 (sc), vehicle: suspension in saline) of the same compound?
Answer: -100 % of control

Question: `O=C1NC2(CCCCC2)C(=O)N1CCN(CCCl)CCCl` was tested. Which T/C [9] did it give?
Answer: 48 % of control

Question: Which T/C (dose: 9.38 mg/kg/injection, schedule: Q04DX003 (sc), vehicle: saline with Tween-80) does the source give for `C=C1C(=O)O[C@@H]2[C@H](O)[C@@H](C)[C@@H]3C=CC(=O)[C@@]3(C)[C@H](OC(=O)C=C(C)C)[C@H]12` here?
Answer: 65 % of control

Question: What about the T/C [10] of the same compound?
Answer: 105 % of control

Question: And the T/C [11]?
Answer: 84 % of control

Question: `COc1ccc([I+]c2cccc(Cl)c2)cc1Cl` was tested. Which T/C [12] did it give?
Answer: 114 % of control

Question: What about the T/C [1] of the same compound?
Answer: 100 % of control

Question: What about the T/C [2] of the same compound?
Answer: 84 % of control

Question: What about the T/C [3] of the same compound?
Answer: 41 % of control

Question: Which results are given for `CC12CCC3C(CCC4CC(OC(=O)Cc5ccc(N(CCCl)CCCl)cc5)CCC43C)C1CCC(=O)N2` (stereo unspecified)?
Answer: T/C [13]: 3 % of control; T/C (dose: 400.0 mg/kg/injection, schedule: Q04DX003 (sc), vehicle: saline with Tween-80): -82 % of control

Question: Which T/C [9] does the source give for `OCCOCCN1CCN(CCCN2c3ccccc3Sc3ccc(C(F)(F)F)cc32)CC1` here?
Answer: 111 % of control

Question: And the T/C (dose: 24.0 mg/kg/injection, schedule: Q01DX010 (sc), vehicle: saline)?
Answer: 41 % of control and 55 % of control

Question: And the T/C (dose: 48.0 mg/kg/injection, schedule: Q01DX010 (sc), vehicle: saline)?
Answer: 39 % of control

Question: `COc1cccc2c1C(=N)c1c(O)c3c(c(O)c1C2=O)C[C@@](O)(C(C)=O)C[C@@H]3OC1CC(N)C(O)C(C)O1` (stereo partly specified) was tested. Which T/C (dose: 4.0 mg/kg/injection, schedule: Q01DX010 (sc), vehicle: water) did it give?
Answer: 62 % of control

Question: What about the T/C (dose: 16.0 mg/kg/injection, schedule: Q01DX010 (sc), vehicle: water) of the same compound?
Answer: 13 % of control and 21 % of control

Question: With `O=c1[nH]c(=O)n(C2CC(O)C(CO)O2)cc1I` (stereo unspecified) as the compound, how does the T/C (dose: 100.0 mg/kg/injection, schedule: Q01DX010 (sc), vehicle: saline with Tween-80) read?
Answer: 55 % of control

Question: What about the T/C (dose: 200.0 mg/kg/injection, schedule: Q01DX010 (sc), vehicle: saline with Tween-80) of the same compound?
Answer: 38 % of control

Question: What about the T/C (dose: 400.0 mg/kg/injection, schedule: Q01DX010 (sc), vehicle: saline with Tween-80) of the same compound?
Answer: 48 % of control

Question: Which results are given for `CCCCCCCCSC1=C(Cl)C(=O)C(OC)=C(OC)C1=O`?
Answer: T/C (dose: 36.0 mg/kg/injection, schedule: Q04DX003 (sc), vehicle: saline with Tween-80): 113 % of control; T/C (dose: 72.0 mg/kg/injection, schedule: Q04DX003 (sc), vehicle: saline with Tween-80): 109 % of control; T/C (dose: 144.0 mg/kg/injection, schedule: Q04DX003 (sc), vehicle: saline with Tween-80): 90 % of control

Question: What does the source list for `Cc1ccc(S(=O)(=O)N/N=C/C(Br)=C(/Br)C(=O)O)cc1`?
Answer: T/C (dose: 2.5 mg/kg/injection, schedule: Q04DX003 (sc), vehicle: saline): 95 % of control; T/C (dose: 5.0 mg/kg/injection, schedule: Q04DX003 (sc), vehicle: saline): 100 % of control; T/C (dose: 10.0 mg/kg/injection, schedule: Q04DX003 (sc), vehicle: saline): 100 % of control; T/C (dose: 20.0 mg/kg/injection, schedule: Q04DX003 (sc), vehicle: saline): 78 % of control; T/C (dose: 150.0 mg/kg/injection, schedule: Q04DX003 (sc), vehicle: Klucel (hydroxypropylcellulose) (HPC)): 80 % of control; T/C [14]: 71 % of control; T/C [15]: 26 % of control

Question: How did the T/C (dose: 150.0 mg/kg/injection, schedule: Q04DX003 (sc), vehicle: saline + alcohol) turn out when `CC(Cc1ccc(O)c(O)c1)C(C)Cc1ccc(O)c(O)c1` (stereo unspecified) was run?
Answer: 109 % of control

Question: What about the T/C (dose: 300.0 mg/kg/injection, schedule: Q04DX003 (sc), vehicle: saline + alcohol) of the same compound?
Answer: 92 % of control

Question: What about the T/C (dose: 1200.0 mg/kg/injection, schedule: Q04DX003 (sc), vehicle: saline + alcohol) of the same compound?
Answer: 92 % of control

Question: What does the source list for `CC1c2ccccc2CC(CCN(C)C)c2ccccc21` (stereo unspecified)?
Answer: T/C (dose: 9.37 mg/kg/injection, schedule: Q04DX003 (sc), vehicle: saline with Tween-80): 101 % of control; T/C (dose: 12.5 mg/kg/injection, schedule: Q04DX003 (sc), vehicle: saline with Tween-80): 63 % of control; T/C [10]: 83 % of control; T/C [13]: 54 % of control; T/C [11]: 52 % of control; T/C (dose: 50.0 mg/kg/injection, schedule: Q04DX003 (sc), vehicle: saline with Tween-80): 65 % of control; T/C (dose: 75.0 mg/kg/injection, schedule: Q04DX003 (sc), vehicle: saline with Tween-80): 26 % of control; T/C (dose: 100.0 mg/kg/injection, schedule: Q04DX003 (sc), vehicle: saline with Tween-80): 38 % of control; T/C [12]: -3 % of control; T/C [2]: -19 % of control

Question: What does the source list for `COc1ccc(C(=O)c2no[n+]([O-])c2C(=O)c2ccc(OC)cc2)cc1`?
Answer: T/C [1]: 121 % of control; T/C [2]: 91 % of control; T/C [3]: 66 % of control; T/C [4]: 88 % of control

Question: For `Cc1ccc(C2NC(=S)N3C(c4ccc(C)cc4)NC(=S)N23)cc1` (stereo unspecified), which T/C [14] is on record?
Answer: 91 % of control

Question: What about the T/C [15] of the same compound?
Answer: 112 % of control

Question: And the T/C (dose: 2400.0 mg/kg/injection, schedule: Q04DX003 (sc), vehicle: Klucel (hydroxypropylcellulose) (HPC))?
Answer: 89 % of control

Question: With `O=C1SC(c2ccccc2)=S=C1c1ccccc1` as the compound, how does the T/C [1] read?
Answer: 102 % of control

Question: What about the T/C [2] of the same compound?
Answer: 78 % of control

Question: What about the T/C [3] of the same compound?
Answer: 109 % of control

Question: And the T/C [4]?
Answer: 48 % of control

Question: With `Cc1ccc(S(=O)(=O)N/N=C/C(=O)O)cc1` as the compound, how does the T/C (dose: 25.0 mg/kg/injection, schedule: Q01DX010 (sc), vehicle: Klucel (hydroxypropylcellulose) (HPC)) read?
Answer: 90 % of control

Question: And the T/C (dose: 50.0 mg/kg/injection, schedule: Q01DX010 (sc), vehicle: Klucel (hydroxypropylcellulose) (HPC))?
Answer: 103 % of control

Question: And the T/C (dose: 400.0 mg/kg/injection, schedule: Q01DX010 (sc), vehicle: Klucel (hydroxypropylcellulose) (HPC))?
Answer: 58 % of control

Question: And the T/C (dose: 800.0 mg/kg/injection, schedule: Q01DX010 (sc), vehicle: Klucel (hydroxypropylcellulose) (HPC))?
Answer: 71 % of control

Question: How did the T/C (dose: 0.25 mg/kg/injection, schedule: Q04DX003 (ip), vehicle: water) turn out when `Cc1ccc(C(=O)NC2C(=O)NC(C(C)C)C(=O)N3CCCC3C(=O)N(C)CC(=O)N(C)C(C(C)C)C(=O)OC2C)c2c1Oc1c(c(C(=O)NC3C(=O)NC(C(C)C)C(=O)N4CCCC4C(=O)N(C)CC(=O)N(C)C(C(C)C)C(=O)OC3C)c3nc(-c4ccccc4)c(=O)oc3c1C)N2` (stereo unspecified) was run?
Answer: 77 % of control

Question: And the T/C (dose: 0.5 mg/kg/injection, schedule: Q04DX003 (ip), vehicle: water)?
Answer: 75 % of control

Question: And the T/C (dose: 1.0 mg/kg/injection, schedule: Q04DX003 (ip), vehicle: water)?
Answer: 49 % of control

Question: And the T/C (dose: 2.0 mg/kg/injection, schedule: Q04DX003 (ip), vehicle: water)?
Answer: 51 % of control

Question: What about the T/C (dose: 4.0 mg/kg/injection, schedule: Q04DX003 (ip), vehicle: water) of the same compound?
Answer: 12 % of control

Question: What does the source list for `O=C(O)CP(=O)(O)O`?
Answer: T/C [5]: 87 % of control; T/C [6]: 89 % of control; T/C [7]: 83 % of control; T/C [8]: 59 % of control

Question: What does the source list for `Nc1nc(F)nc2c1ncn2C1OC(COP(=O)(O)O)C(O)C1O` (stereo unspecified)?
Answer: T/C (dose: 50.0 mg/kg/injection, schedule: Q01DX010 (sc), vehicle: saline): 86 % of control; T/C (dose: 100.0 mg/kg/injection, schedule: Q01DX010 (sc), vehicle: saline): 69 % of control; T/C (dose: 200.0 mg/kg/injection, schedule: Q01DX010 (sc), vehicle: saline): 91 % of control

Question: `CC(=O)Nc1ccc(O)c(O)c1` was tested. Which T/C [1] did it give?
Answer: 75 % of control

Question: What about the T/C [2] of the same compound?
Answer: 52 % of control

Question: And the T/C [3]?
Answer: 47 % of control

Question: What does the source list for `COc1cc(OC)c(OC)cc1/C=C\c1ccnc2ccccc12`?
Answer: T/C [14]: 85 % of control; T/C [15]: 110 % of control; T/C (dose: 1200.0 mg/kg/injection, schedule: Q04DX003 (sc), vehicle: Klucel (hydroxypropylcellulose) (HPC)): 99 % of control

— PubChem BioAssay AID296 (DTP/NCI, 2004)
